“Also recorded” adds a separate entry of the source.
Legend:
[1] = tested on: human iNOS; details: crude lysates; cited from earlier work
[2] = tested on: human chondrocyte NOS; details: cited from earlier work
[3] = tested on: calmodulin; experiment: Calmodulin binding of NOS isoforms
Experimental: Extraction of Human Chondrocyte NOS and Western Blotting. Slices from articular cartilage affected by OA were frozen at -70° C., milled to fine particulate in liquid nitrogen, and sequentially extracted (10 ml/gram wet weight tissue) with neutral salt buffer (Tris HCl:saline) containing protease inhibitors (1 mM PMSF, 2 mM N-ethylmaleimide, and 0.025 mg/ml leupeptin), followed with the same buffer containing 10 mM EDTA, with 4 M guanidine-HCl, and then with a detergent buffer containing 10% SDS with protease inhibitors. Samples were run on 9% or 4-15% gradient SDS-PAGE gels under non-reducing conditions, transferred to nitrocellulose, and Western blotted with α-iNOS/α-ncNOS or α-calmodulin mAb (Cho et al., J. Exp. Med. 176:599-604, 1992). Bound antibody was detected by a secondary antibody conjugated with horseradish peroxidase, and developed using the ECL Western blotting system (Amersham, Arlington Heights, Ill.) on Kodak Xomatic X-ray film.

[4] = tested on: OA-NOS; experiment: Nitrite release by OA-affected articular cartilage, ex vivo organ culture; format: cell-based, human; details: Homo sapiens; cycloheximide 35 μM or PDTC 30 μM, 24 h; cytokine/endotoxin-induced and control cartilage; read-out: block of nitrite accumulation
[5] = tested on: human iNOS; experiment: Sensitivity of human iNOS to PDTC
[6] = tested on: OA-NOS; experiment: Sensitivity of OA-NOS to agents (Table 3 comparison)
[7] = tested on: murine iNOS; experiment: Sensitivity of murine iNOS to PDTC
[8] = tested on: iNOS; experiment: Nitrite accumulation in LPS-stimulated RAW 264.7 murine macrophages (Griess method); format: cell-based; details: Mus musculus, RAW264.7; 30 μM; read-out: block of nitrite accumulation
Experimental: Effects of NSAIDs on Nitrite Accumulation. […] The expression and activity of iNOS were monitored by estimation of the stable end-product: nitrites.
concentrations of NSAIDs for 2 h followed by addition of 100 ng/ml of LPS
After 16-18 h of incubation, the medium was used to estimate the
accumulation of nitrite by the Greiss method (Green et al., Anal Biochem.
The specific activity of iNOS was determined in cellfre
extracts at a given time period as described. The nitrite and specific
activity data are representative of mean ± SD value, as determined by
student t test, for 10 and 4 independent experiments, respectively. The p
values described are compared with LPSstimulated cells. […]

[9] = tested on: NF-κB; details: 30 μM; cited from earlier work

## O=C(O)CN(CCOCCOCCN(CC(=O)O)CC(=O)O)CC(=O)O [EGTA]
[1]
  human iNOS activity: markedly reduces
[2]
  enzyme activity in cell-free extracts: no effect on enzyme activity

## human hepatocyte iNOS: obtained from NIH 3T3 fibroblasts transduced with a retrovirus carrying the human hepatocyte iNOS cDNA
[3]
  Calmodulin binding: complexed with calmodulin

## S=C(S)N1CCCC1 [PDTC, pyrrolidine dithiocarbamate]
[4]
  inhibition at 30 µM: > 90%
[5]
  effect on human iNOS: not human iNOS
[6]
  sensitivity of OA-NOS: blocked; also recorded: shows sensitivity
[7]
  effect on murine iNOS: blocks murine iNOS
[8]
  inhibition at 30 µM: > 90%
[9]
  inhibition of NF-κB as component of iNOS transcription/expression: inhibited
